Like-named read-outs stand apart in the source and are kept apart here. *1 amine or outer side, *2 acyl side, *3 side chain or, on linkers, in order; H or OH if unused. Where a SMILES comes first, the peptide text is derived from it. [ ]: non-standard residue; d: D form. ξ: configuration not given here. Dil(5ξ) = CCC(C)[C@@H]([C@@H](CC(=O)[*:2])OC)N(C)[*:1]; Dolaproine = CO[C@@H]([C@@H]1CCCN1)[C@@H](C)C(=O)O; NMeV = CN[C@H](C(=O)O)C(C)C; ξF = NC(Cc1ccccc1)C(=O)O
Tests used:
KB cancer cell line = assay: In vitro cytotoxicity of ligand-drug conjugates (MTT); assay type: cell-based, human; settings: for IC50: read-out: Cell cytotoxicity IC50
Procedure: KB cancer cell line was seeded 30,000 cells per well of a 96-well plate, and after the culture for 24 hours, the drug MMAF-OMe was treated with a concentration of 0.0097˜10 nM (4-fold serial dilution), ligand-drug conjugate (B) prepared in Comparative Example 2 and ligand-drug conjugate (1) prepared in Example 2 were treated with a concentration of 0.0244-100 nM (4-fold serial dilution). The number of live cell after 72 hours was quantified by using 3-(4,5-dimethylthiazol-2-yl)-2,5-diphenyltetrazolium bromide (MTT) dye as chromogenic reagent. And then formazan reduced by oxidoreductase present in live cells were dissolved in DMSO, and quantified. […] Therefore, in the case of compound (1) to which galactoside linker is introduced, it could be confirmed that it has better efficacy compared with compound (B) to which glucuronide linker is introduced.

beta-galactosidase = molecular target: T1, beta-galactosidase (Escherichia coli, UniProt P00722); assay: in vitro; assay type: biochemical, E. coli; settings: Escherichia coli; beta-galactosidase, PBS buffer, 37° C., HPLC; read-out: hydrolysis half-life by enzyme
T1 construct: purchased Sigma G4155
Procedure: (§1) In order to identify the reactivity of ligand-drug conjugate (1) of Example 2 to β-galactosidase, the difference of the reactivity to R-glucuronidase between it and ligand-drug conjugate (B) of Comparative Example 2 as a comparative material was compared.
(§2) Ligand-drug conjugate (1) of Example 2 and ligand-drug conjugate (B) of Comparative Example 2 were respectively dissolved in DMSO to a concentration of 9 mM, and then each of them was mixed with PBS buffer solution to prepare 500 μM of solution.
(§3) An enzyme reaction solution for ligand-drug conjugate (1) of Example 2 was prepared by adding 1 mg/mL enzyme solution (10 μL) to the mixed solution comprising PBS buffer solution (440 μL) and 500 μM ligand-drug conjugate (1) solution (50 μL) of Example 2, then the reaction was initiated in 37° C. of the incubator.
(§4) Beta-galactosidase enzyme (Sigma G4155) in E. coli was used for the reaction mixture comprising ligand-drug conjugate (1) of Example 2 and beta-glucuronidase enzyme (Sigma G7396) in E. coli was used for the reaction mixture comprising ligand-drug conjugate (B) of Comparative Example 2 for the comparison experiment.
(§5) That is, in the case of compound (1) to which galactoside linker is introduced, it could be confirmed that it has more rapid hydrolysis rate 6 times or more, relative to comparison compound (B) to which glucuronide linker is introduced.

[1] = molecular target: T2, Beta-galactosidase enzyme (Sigma G4155) in E. coli (Escherichia coli, UniProt P00722); assay: in vitro; assay type: biochemical; settings: (1) with beta-galactosidase versus (B) with beta-glucuronidase
T2 construct: purchased Sigma G4155
Procedure: as §1, §2, §3, §4, §5

folate receptor = molecular target: T3, folate receptor (Homo sapiens, UniProt P15328); assay: Binding affinity of ligand-drug conjugate to folic acid receptor (competition with FA-Cy5 tracer, polarized light)
T3 construct: Soluble plasma membrane from KB human cancer cells were isolated; endogenous in cells; host or cells: KB human cancer cells (plasma membrane protein extract, Abcam kit ab65400)
Procedure: Soluble plasma membrane from KB human cancer cells were isolated using plasma membrane protein extraction kit (ab65400) (Abcam company). […] After the preincubation for 15 minutes, FA-Cy5 tracer prepared in Preparation Example 10 was treated with a concentration of 1 nM, and after the reaction for 2 hours at 37° C., synergy2 microplate reader (BioTek company) (ex/em=635/688 nm) was used to measure polarized light.

T3 sequence (P15328 25-234): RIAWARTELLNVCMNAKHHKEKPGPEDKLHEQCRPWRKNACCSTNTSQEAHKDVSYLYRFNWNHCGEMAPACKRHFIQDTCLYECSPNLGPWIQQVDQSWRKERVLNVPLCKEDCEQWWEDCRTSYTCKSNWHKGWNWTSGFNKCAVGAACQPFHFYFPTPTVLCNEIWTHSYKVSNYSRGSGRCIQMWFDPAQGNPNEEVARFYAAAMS
T2 sequence (P00722 2-1024): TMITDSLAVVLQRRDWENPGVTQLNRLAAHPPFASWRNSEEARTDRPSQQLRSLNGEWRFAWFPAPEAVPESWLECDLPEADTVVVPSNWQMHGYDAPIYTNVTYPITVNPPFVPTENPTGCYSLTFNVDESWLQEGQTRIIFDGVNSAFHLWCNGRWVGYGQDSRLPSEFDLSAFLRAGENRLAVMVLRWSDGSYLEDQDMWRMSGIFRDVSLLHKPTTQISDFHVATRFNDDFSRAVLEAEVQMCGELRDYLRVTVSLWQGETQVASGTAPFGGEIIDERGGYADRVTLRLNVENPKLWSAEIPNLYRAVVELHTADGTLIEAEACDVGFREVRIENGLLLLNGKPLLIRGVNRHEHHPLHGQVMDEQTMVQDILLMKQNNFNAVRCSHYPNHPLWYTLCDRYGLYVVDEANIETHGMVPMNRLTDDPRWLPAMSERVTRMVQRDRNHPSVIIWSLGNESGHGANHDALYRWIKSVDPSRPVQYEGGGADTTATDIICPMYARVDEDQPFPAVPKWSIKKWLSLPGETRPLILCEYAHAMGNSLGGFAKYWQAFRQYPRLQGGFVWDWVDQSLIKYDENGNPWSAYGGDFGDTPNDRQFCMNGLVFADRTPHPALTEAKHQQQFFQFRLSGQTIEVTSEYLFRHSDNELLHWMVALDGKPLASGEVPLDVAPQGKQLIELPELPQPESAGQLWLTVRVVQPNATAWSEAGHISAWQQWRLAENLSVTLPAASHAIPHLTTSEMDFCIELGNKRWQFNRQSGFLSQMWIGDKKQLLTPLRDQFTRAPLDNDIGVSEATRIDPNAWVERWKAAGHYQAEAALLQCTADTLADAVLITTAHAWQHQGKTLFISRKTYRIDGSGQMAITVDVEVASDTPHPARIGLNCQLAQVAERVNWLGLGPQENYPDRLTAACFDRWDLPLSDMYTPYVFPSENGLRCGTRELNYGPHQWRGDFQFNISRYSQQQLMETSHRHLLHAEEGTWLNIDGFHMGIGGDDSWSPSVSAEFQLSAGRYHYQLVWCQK
T1 sequence (P00722 2-1024): as above

| SMILES | IC50 (KB cancer cell line; Homo sapiens, KB, 72 h) [pM] | half-life at 50 µM (beta-galactosidase) [min] | more rapid hydrolysis rate relative to comparison compound (B) [1] [times] | IC50 (folate receptor) [pM] | binding affinity (IC50) better than (B) (folate receptor; relative to ligand-drug conjugate (B)) [fold] | IC50 (KB cancer cell line; KB cell, 72 hours, MTT) [pM] | cytotoxicity better than conjugate (B) (KB cancer cell line; KB cell, relative to conjugate (B)) |
| --- | --- | --- | --- | --- | --- | --- | --- |
| CCC(C)[C@@H]([C@@H](CC(=O)N1CCC[C@H]1[C@H](OC)[C@@H](C)C(=O)NC(Cc1ccccc1)C(=O)OC)OC)N(C)C(=O)[C@@H](NC(=O)[C@@H](NC)C(C)C)C(C)C (stereo partly shown) [MMAF-OMe, reference compound] (H-[NMeV]V[Dil(5ξ)][Dolaproine][ξF]-OMe) | 380 ± 170 |  |  |  |  |  |  |
| CCC(C)[C@@H]([C@@H](CC(=O)N1CCC[C@H]1[C@H](OC)[C@@H](C)C(=O)N[C@@H](Cc1ccccc1)C(=O)O)OC)N(C)C(=O)[C@@H](NC(=O)[C@H](C(C)C)N(C)C(=O)OCc1ccc(O[C@@H]2O[C@H](CO)[C@H](O)[C@H](O)[C@H]2O)c(C(=O)NCCOCCOCCOCc2cn(CCC(=O)N[C@@H](CCCCN)C(=O)NCCOCCOCCNC(=O)CC[C@H](NC(=O)c3ccc(NCc4cnc5nc(N)[nH]c(=O)c5n4)cc3)C(=O)O)nn2)c1)C(C)C (stereo partly shown) [ligand-drug conjugate (1)] |  | 34.7 | ≥ 6 | 17500 | 2.5 | 440 ± 120 | about twofold |
